Experimental data as given in the supplement of paper PMC10307832.

Columns and labels:
Assay in all cases: relative viability (nuclei count vs DMSO), 5 days (fraction); higher = more cells survive
NCI-H1355 = test system: NCI-H1355
How it was run: (§1)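 Medians of duplicate plates are given as relative viability. That measure is the nuclei count in treated wells divided by the count in vehicle wells. Counts were taken on 4× images of lung cancer cell lines in 1536-well plates, 5 days after pin-tool dosing the day after seeding with one drug alone or a fixed anchor-drug dose plus five library-drug doses (not always all listed) in √10 steps.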

LK-2 = test system: LK-2
How it was run: as §1

A549 = test system: A549
How it was run: as §1

EBC-1 = test system: EBC-1
How it was run: as §1

Calu-6 = test system: Calu-6
How it was run: as §1

COR-L 105 = test system: COR-L 105
How it was run: as §1

IA-LM = test system: IA-LM
How it was run: as §1

NCI-H520 = test system: NCI-H520
How it was run: as §1

NCI-H1299 = test system: NCI-H1299
How it was run: as §1

LCLC-103H = test system: LCLC-103H
How it was run: as §1

NCI-H1703 = test system: NCI-H1703
How it was run: as §1

## CCN(CC)CCCCNc1ncc2cc(-c3cc(OC)cc(OC)c3)c(NC(=O)NC(C)(C)C)nc2n1 + CS(=O)(=O)N1CCN(Cc2cc3nc(-c4cccc5[nH]ncc45)nc(N4CCOCC4)c3s2)CC1 [Pictilisib] (partner 1 µM)
NCI-H1355; first compound 0.01 µM
  relative viability: 0.327
NCI-H1355; first compound 0.03162 µM
  relative viability: 0.375
NCI-H1355; first compound 0.1 µM
  relative viability: 0.478
NCI-H1355; first compound 0.3162 µM
  relative viability: 0.569
NCI-H1355; first compound 1 µM
  relative viability: 0.461
LK-2; first compound 0.01 µM
  relative viability: 0.624
LK-2; first compound 0.03162 µM
  relative viability: 0.438
LK-2; first compound 0.1 µM
  relative viability: 0.425
LK-2; first compound 0.3162 µM
  relative viability: 0.388
LK-2; first compound 1 µM
  relative viability: 0.263
A549; first compound 0.01 µM
  relative viability: 0.52
A549; first compound 0.03162 µM
  relative viability: 0.543
A549; first compound 0.1 µM
  relative viability: 0.562
A549; first compound 0.3162 µM
  relative viability: 0.621
A549; first compound 1 µM
  relative viability: 0.41
EBC-1; first compound 0.01 µM
  relative viability: 0.369
EBC-1; first compound 0.03162 µM
  relative viability: 0.32
EBC-1; first compound 0.1 µM
  relative viability: 0.342
EBC-1; first compound 0.3162 µM
  relative viability: 0.37
EBC-1; first compound 1 µM
  relative viability: 0.293
Calu-6; first compound 0.01 µM
  relative viability: 1.01
Calu-6; first compound 0.03162 µM
  relative viability: 0.994
Calu-6; first compound 0.1 µM
  relative viability: 1.12
Calu-6; first compound 0.3162 µM
  relative viability: 1.09
Calu-6; first compound 1 µM
  relative viability: 0.87
COR-L 105; first compound 0.01 µM
  relative viability: 0.368
COR-L 105; first compound 0.03162 µM
  relative viability: 0.394
COR-L 105; first compound 0.1 µM
  relative viability: 0.418
COR-L 105; first compound 0.3162 µM
  relative viability: 0.445
COR-L 105; first compound 1 µM
  relative viability: 0.392
IA-LM; first compound 0.01 µM
  relative viability: 0.329
IA-LM; first compound 0.03162 µM
  relative viability: 0.329
IA-LM; first compound 0.1 µM
  relative viability: 0.342
IA-LM; first compound 0.3162 µM
  relative viability: 0.333
IA-LM; first compound 1 µM
  relative viability: 0.265
NCI-H520; first compound 0.01 µM
  relative viability: 0.292
NCI-H520; first compound 0.03162 µM
  relative viability: 0.301
NCI-H520; first compound 0.1 µM
  relative viability: 0.264
NCI-H520; first compound 0.3162 µM
  relative viability: 0.225
NCI-H520; first compound 1 µM
  relative viability: 0.146
NCI-H1299; first compound 0.01 µM
  relative viability: 0.883
NCI-H1299; first compound 0.03162 µM
  relative viability: 0.845
NCI-H1299; first compound 0.1 µM
  relative viability: 0.851
NCI-H1299; first compound 0.3162 µM
  relative viability: 0.96
NCI-H1299; first compound 1 µM
  relative viability: 0.775
LCLC-103H; first compound 0.01 µM
  relative viability: 0.551
LCLC-103H; first compound 0.03162 µM
  relative viability: 0.661
LCLC-103H; first compound 0.1 µM
  relative viability: 0.595
LCLC-103H; first compound 0.3162 µM
  relative viability: 0.553
LCLC-103H; first compound 1 µM
  relative viability: 0.443
NCI-H1703; first compound 0.01 µM
  relative viability: 0.233
NCI-H1703; first compound 0.03162 µM
  relative viability: 0.222
NCI-H1703; first compound 0.1 µM
  relative viability: 0.244
NCI-H1703; first compound 0.3162 µM
  relative viability: 0.213
NCI-H1703; first compound 1 µM
  relative viability: 0.252

## COc1nc(C)cnc1NS(=O)(=O)c1cccnc1-c1ccc(-c2nnco2)cc1 [Zibotentan] + C[C@@H](Oc1cc(-c2cnn(C3CCNCC3)c2)cnc1N)c1c(Cl)ccc(F)c1Cl [Crizotinib] (partner 1 µM)
NCI-H1355; first compound 0.08 µM
  relative viability: 1.07
NCI-H1355; first compound 0.253 µM
  relative viability: 1.07
NCI-H1355; first compound 0.8 µM
  relative viability: 1.12
NCI-H1355; first compound 2.53 µM
  relative viability: 0.974
LK-2; first compound 0.08 µM
  relative viability: 0.259
LK-2; first compound 0.253 µM
  relative viability: 0.237
LK-2; first compound 0.8 µM
  relative viability: 0.253
LK-2; first compound 2.53 µM
  relative viability: 0.241
A549; first compound 0.08 µM
  relative viability: 0.932
A549; first compound 0.253 µM
  relative viability: 0.696
A549; first compound 0.8 µM
  relative viability: 0.742
A549; first compound 2.53 µM
  relative viability: 0.761
EBC-1; first compound 0.08 µM
  relative viability: 0.176
EBC-1; first compound 0.253 µM
  relative viability: 0.194
EBC-1; first compound 0.8 µM
  relative viability: 0.202
EBC-1; first compound 2.53 µM
  relative viability: 0.223
Calu-6; first compound 0.08 µM
  relative viability: 0.854
Calu-6; first compound 0.253 µM
  relative viability: 0.786
Calu-6; first compound 0.8 µM
  relative viability: 0.741
Calu-6; first compound 2.53 µM
  relative viability: 0.752
COR-L 105; first compound 0.08 µM
  relative viability: 0.826
COR-L 105; first compound 0.253 µM
  relative viability: 0.665
COR-L 105; first compound 0.8 µM
  relative viability: 0.901
COR-L 105; first compound 2.53 µM
  relative viability: 1.07
IA-LM; first compound 0.08 µM
  relative viability: 0.809
IA-LM; first compound 0.253 µM
  relative viability: 0.702
IA-LM; first compound 0.8 µM
  relative viability: 1.1
IA-LM; first compound 2.53 µM
  relative viability: 0.975
NCI-H520; first compound 0.08 µM
  relative viability: 0.857
NCI-H520; first compound 0.253 µM
  relative viability: 0.747
NCI-H520; first compound 0.8 µM
  relative viability: 0.798
NCI-H520; first compound 2.53 µM
  relative viability: 0.893
NCI-H1299; first compound 0.08 µM
  relative viability: 0.949
NCI-H1299; first compound 0.253 µM
  relative viability: 0.924
NCI-H1299; first compound 0.8 µM
  relative viability: 0.95
NCI-H1299; first compound 2.53 µM
  relative viability: 0.968
LCLC-103H; first compound 0.08 µM
  relative viability: 0.932
LCLC-103H; first compound 0.253 µM
  relative viability: 0.965
LCLC-103H; first compound 0.8 µM
  relative viability: 0.97
LCLC-103H; first compound 2.53 µM
  relative viability: 1.05
NCI-H1703; first compound 0.08 µM
  relative viability: 0.722
NCI-H1703; first compound 0.253 µM
  relative viability: 0.756
NCI-H1703; first compound 0.8 µM
  relative viability: 0.864
NCI-H1703; first compound 2.53 µM
  relative viability: 0.555
